{"source": "patent US20250288604A1", "about": "“SUGAR-CONJUGATED LIPID NANOPARTICLES FOR TARGETED DELIVERY OF SIRNA TO HEPATOCYTES” (University of Virginia Patent Foundation, priority 2022, published 2025)", "origin": "cited, not measured here"}
{"conditions": "single ionizable lipid"}
{"compound": "CCCCCCCCC(CCCCCC)C(=O)OCCCCCCN(CCCCO)CCCCCCOC(=O)C(CCCCCC)CCCCCCCC", "note": "(stereo not drawn) [ALC-0315]", "pKa": 6.09}
{"compound": "CCCCC/C=C\\C/C=C\\CCCCCCCCC(CCCCCCCC/C=C\\C/C=C\\CCCCC)OC(=O)CCCN(C)C", "note": "[DLinMc3DMA, (6Z,9Z,28Z,31Z)-Heptatriaconta-6,9,28,31-tetraen-19-yl 4-(dimethylamino) butanoate]", "pKa": 6.44}
{"compound": "CCCCCCCCCCCOC(=O)CCCCCN(CCO)CCCCCCCC(=O)OC(CCCCCCCC)CCCCCCCC", "note": "[SM-102]", "pKa": 6.75}
